Key:
[1] = tested on: MT4; assay: (§1) Selective index as the ratio of CC50 and EC50; assay type: functional
[2] = tested on: MT4; assay: Concentration required to protect MT-4 cells from HIV-1 induced cytopathogenicity by 50%; determined by MTT method; assay type: functional, cell-based; conditions: Homo sapiens
[3] = tested on: MT4; assay: Concentration required to reduce the viability of mock-infected cells by 50%; determined by MTT method.; assay type: functional; conditions: Homo sapiens
[4] = tested on: Human immunodeficiency virus type 1 reverse transcriptase (Human immunodeficiency virus 1), Q72547 [R221A]
Description: Dose required to inhibit HIV-1 reverse transcriptase activity (Y188L mutant) by 50%

[5] = tested on: Human immunodeficiency virus type 1 reverse transcriptase (Human immunodeficiency virus 1), Q72547 [L100I]
Description: Dose required to inhibit HIV-1 reverse transcriptase activity ( L100I mutant) by 50%

[6] = tested on: Human immunodeficiency virus type 1 reverse transcriptase (Human immunodeficiency virus 1), Q72547 [Y181I]
[7] = biological target: Human immunodeficiency virus type 1 reverse transcriptase (Human immunodeficiency virus 1) (UniProt Q72547)
Description: Dose required to inhibit HIV-1 reverse transcriptase activity (wild-type) by 50%

[8] = tested on: Human immunodeficiency virus type 1 reverse transcriptase (Human immunodeficiency virus 1), Q72547 [V179D]
Description: Dose required to inhibit HIV-1 reverse transcriptase activity (V179D mutant) by 50%

[9] = tested on: Human immunodeficiency virus type 1 reverse transcriptase (Human immunodeficiency virus 1), Q72547 [K103N]
[10] = biological target: T1, Human immunodeficiency virus type 1 reverse transcriptase (Human immunodeficiency virus 1, UniProt Q72547); assay: Concentration required to inhibit HIV-1 reverse transcriptase activity (wild-type) by 50%; assay type: functional
[11] = biological target: T1, Human immunodeficiency virus type 1 reverse transcriptase; assay: Concentration required to inhibit HIV-1 reverse transcriptase activity of wild-type enzyme; assay type: functional
[12] = biological target: Human immunodeficiency virus type 1 reverse transcriptase (Human immunodeficiency virus 1) (UniProt Q72547); assay: Dose required to inhibit HIV-1 reverse transcriptase activity of wild-type enzyme by 50%
[13] = tested on: Human immunodeficiency virus type 1 reverse transcriptase (Human immunodeficiency virus 1), Q72547 [K103N]; assay: Dose required to inhibit HIV-1 reverse transcriptase activity (K103N mutant) by 50%
[14] = tested on: Human immunodeficiency virus type 1 reverse transcriptase (Human immunodeficiency virus 1), Q72547 [L100I]; assay: Dose required to inhibit HIV-1 reverse transcriptase activity (L100I mutant) by 50%
[15] = tested on: MT4; assay: as §1; assay type: functional, Human immunodeficiency virus 1
[16] = biological target: T1, Human immunodeficiency virus type 1 reverse transcriptase; assay: Concentration required to inhibit HIV-1 reverse transcriptase activity (wild-type) enzyme

SMILES | SI [1] | EC50 [2] [µM] | CC50 [3] [µM] | other results
Cc1cccc(C(SCCn2c([N+](=O)[O-])cnc2C)c2ccccc2)c1 (stereo unspecified) | >33.3 | 3 | > 100 | –
Cc1ncc([N+](=O)[O-])n1CCNC(c1ccccc1)c1ccccc1Cl (stereo unspecified) | >1.1 | 90 | > 100 | –
Cc1ncc([N+](=O)[O-])n1CCOC(c1ccccc1)c1ccc2ccccc2c1 (stereo unspecified) | – | > 100 | > 100 | –
Cc1ncc([N+](=O)[O-])n1CCOC(c1cccc(F)c1)c1cccs1 (stereo unspecified) | >714 | 0.14 | > 100 | –
Cc1ncc([N+](=O)[O-])n1CCNCc1ccccc1 | – | > 100 | > 100 | –
Cc1ncc([N+](=O)[O-])n1CCNC(c1ccccc1)c1ccc(F)cc1 (stereo unspecified) | >1.1 | 92 | > 100 | –
Cc1ncc([N+](=O)[O-])n1CCSCc1ccccc1 | >1.7 | 60 | > 100 | –
Cc1ccnc2c1NC(=O)c1cccnc1N2C1CC1 | – | – | – | ID50 [4]: 18 µM; ID50 [5]: 9 µM; ID50 [6]: 36 µM; ID50 [7]: 0.4 µM; ID50 [8]: 0.3 µM; ID50 [9]: 7 µM
Cc1ncc([N+](=O)[O-])n1CCSC(c1ccccc1)c1ccccc1F (stereo unspecified) | >20 | 5 | > 100 | –
Cc1ncc([N+](=O)[O-])n1CCNC(c1ccccc1)c1ccccc1 | >8.3 | 12 | > 100 | EC50 [10]: 8 µM; ID50 [7]: 16.5 µM
Cc1ncc([N+](=O)[O-])n1CCOC(c1cccs1)c1cccc(F)c1F (stereo unspecified) | >1667 | 0.06 | > 100 | –
Cc1ncc([N+](=O)[O-])n1CCOC(c1ccccc1)c1ccccc1 | >500 | – | > 100 | –
Cc1ncc([N+](=O)[O-])n1CCOC(c1ccc(F)cc1)c1cccs1 (stereo unspecified) | >32.3 | 3.1 | > 100 | –
Cc1ncc([N+](=O)[O-])n1CCOC(c1cccs1)c1ccccc1F (stereo unspecified) | >833 | 0.12 | > 100 | –
Cc1ccc(C(NCCn2c([N+](=O)[O-])cnc2C)c2ccccc2)cc1 (stereo unspecified) | >2.3 | 44 | > 100 | –
Cc1ncc([N+](=O)[O-])n1CCSC(c1ccccc1)c1ccccc1 | >83.5 | 1.2 | > 100 | EC50 [11]: 2.3 µM; ID50 [12]: 10.6%
Cc1ncc([N+](=O)[O-])n1CCOCc1ccccc1 | >2.38 | 4.2 | > 100 | –
Cc1nc([N+](=O)[O-])cn1CCOC(c1ccccc1)c1ccccc1 | >1.5 | 67 | > 100 | –
Cc1ncc([N+](=O)[O-])n1CCS(=O)(=O)C(c1ccccc1)c1ccccc1 | >19.3 | 5.2 | > 100 | –
Cc1ncc([N+](=O)[O-])n1CCOC(c1ccccc1)c1ccc(Cl)s1 (stereo unspecified) | 8.33 | 1.2 | > 100 | –

SMILES | SI [1] | EC50 [2] [µM] | CC50 [3] [µM] | other results
Cc1ncc([N+](=O)[O-])n1CCOC(c1ccccc1)c1cccnc1 (stereo unspecified) | >1250 | 0.08 | > 100 | –
Cc1ccccc1C(OCCn1c([N+](=O)[O-])cnc1C)c1cccs1 (stereo unspecified) | 204 | 0.45 | 92 | –
Cc1ncc([N+](=O)[O-])n1CCSC(c1ccccc1)c1cccc(Cl)c1 (stereo unspecified) | >1.6 | 64 | > 100 | –
Cc1cccc(C(NCCn2c([N+](=O)[O-])cnc2C)c2ccccc2)c1 (stereo unspecified) | >1.5 | 65 | > 100 | –
O=[N+]([O-])c1cn(CCOC(c2ccccc2)c2ccccc2)cn1 | >1.3 | 78 | > 100 | –
Cc1ncc([N+](=O)[O-])n1CCNC(c1ccccc1)c1cccc(Cl)c1 (stereo unspecified) | >47.6 | 2.1 | > 100 | –
Cc1ncc([N+](=O)[O-])n1CCOC(c1ccccc1)C1CCCCC1 (stereo unspecified) | >333.3 | 0.3 | > 100 | –
Cc1ncc([N+](=O)[O-])n1CCSC(c1ccccc1)c1ccccc1Cl (stereo unspecified) | >8.3 | 12 | > 100 | –
Cc1ncc([N+](=O)[O-])n1CCSC(c1ccccc1)c1cccc(F)c1 (stereo unspecified) | >1.2 | 80 | > 100 | –
Cc1ncc([N+](=O)[O-])n1CCOC(c1cccs1)c1ccccc1Cl (stereo unspecified) | >52.6 | 1.9 | > 100 | –
Cc1ncc([N+](=O)[O-])n1CCOC(c1cccc(Cl)c1)c1cccs1 (stereo unspecified) | 900 | 0.08 | 72 | ID50 [13]: 5.1 µM; ID50 [14]: 3.2 µM; ID50 [4]: 15.1 µM; ID50 [6]: 6.25 µM; ID50 [7]: 1.17 µM; ID50 [8]: 10.8 µM
Cc1ncc([N+](=O)[O-])n1CCOC(c1ccccc1)c1cccs1 (stereo unspecified) | – | 0.03 | > 100 | ID50 [4]: 30.2 µM; ID50 [5]: 5.5 µM; ID50 [6]: > 50 µM; SI [15]: >3333; ID50 [7]: 0.37 µM; ID50 [8]: 1.9 µM; EC50 [16]: 0.03 µM; ID50 [9]: 8.25 µM
Cc1ncc([N+](=O)[O-])n1CCN(Cc1ccccc1)C1CCCCC1 | >1.2 | 84 | > 100 | –
Cc1ncc([N+](=O)[O-])n1CCOC(c1ccc(Cl)cc1)c1cccs1 (stereo unspecified) | >1.7 | 58 | > 100 | –
Cc1ncc([N+](=O)[O-])n1CCOC(c1ccccc1)c1ccco1 (stereo unspecified) | >840 | 0.1 | > 100 | –
Cc1nc([N+](=O)[O-])cn1CCOCc1ccccc1 | >4.5 | 22 | > 100 | –
Cc1ccc(C(OCCn2c([N+](=O)[O-])cnc2C)c2cccs2)cc1 (stereo unspecified) | >3333 | 0.3 | > 100 | –
Cc1ncc([N+](=O)[O-])n1CCNC(c1ccccc1)c1ccccc1F (stereo unspecified) | >2 | 50 | > 100 | –
O=[N+]([O-])c1cncn1CCOC(c1ccccc1)c1ccccc1 | – | > 100 | > 100 | –
Cc1ncc([N+](=O)[O-])n1CCNC(c1ccccc1)c1cccc(F)c1 (stereo unspecified) | >55.6 | 1.8 | > 100 | –
